Values quoted from earlier work as cited in patent US8920835B2, “Paliperidone double-layered osmotic pump controlled release tablet and preparation method thereof” (Shanghai Institute of Materia Medica, Chinese Academy of …, priority 2009, dated 2014).

Key:
[1] = in vivo

plasma protein binding rate: 74%
apparent volume of distribution [1]: 487 L
half-life of the terminal elimination phase [1]: about 23 h
Compound: Cc1nc2n(c(=O)c1CCN1CCC(c3noc4cc(F)ccc34)CC1)CCCC2O (stereo not drawn) [Paliperidone]
